According to US20130252890A1, “6,7-DIHYDRO-5H-BENZO[7]ANNULENE DERIVATIVES, PROCESS FOR PREPARATION THEREOF, PHARMACEUTICAL PREPARATIONS COMPRISING THEM, AND THE USE THEREOF FOR PRODUCTION OF MEDICAMENTS” (BAYER INTELLECTUAL PROPERTY GMBH, priority 2010, published 2013):

These molecules were tested against T1, oestrogen receptor (ER) (Homo sapiens, UniProt P03372) (assay: Anti-oestrogenic action in MVLN cells (inhibition of estradiol-induced luciferase)). Conditions: inhibition of estradiol-induced luciferase signal, value of Ex. 44 is a mean value, read-out: Antioestrogenic action in vitro: MVLN transactivation antagonism IC50.
T1 construct: These MVLN cells express, along with the functional oestrogen receptor (ER), a reporter construct; endogenous in cells; host or cells: MVLN cells (MCF7 derivative carrying a luciferase reporter construct)
T1 sequence (P03372 1-595): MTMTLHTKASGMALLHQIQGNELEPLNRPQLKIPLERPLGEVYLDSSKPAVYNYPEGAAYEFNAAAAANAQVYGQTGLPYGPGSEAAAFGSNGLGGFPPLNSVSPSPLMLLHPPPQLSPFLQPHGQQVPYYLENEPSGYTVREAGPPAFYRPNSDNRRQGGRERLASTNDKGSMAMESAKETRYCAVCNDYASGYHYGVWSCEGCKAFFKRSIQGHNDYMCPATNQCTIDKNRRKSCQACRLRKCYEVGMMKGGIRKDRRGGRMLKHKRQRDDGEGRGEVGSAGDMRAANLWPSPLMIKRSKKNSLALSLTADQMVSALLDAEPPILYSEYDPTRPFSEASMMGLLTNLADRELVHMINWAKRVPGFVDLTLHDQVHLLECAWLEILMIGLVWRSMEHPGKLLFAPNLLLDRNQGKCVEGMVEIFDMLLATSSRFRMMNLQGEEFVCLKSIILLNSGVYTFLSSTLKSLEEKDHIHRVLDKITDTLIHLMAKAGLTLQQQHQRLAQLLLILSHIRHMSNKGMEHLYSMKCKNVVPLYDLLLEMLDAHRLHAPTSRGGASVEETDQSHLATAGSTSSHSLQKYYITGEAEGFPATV
Type: cell-based
Excerpt: The anti-oestrogenic action of the claimed pharmacological compounds was investigated in so-called MVLN cells in vitro. MVLN cells are derivatives of the hormone-responsive MCF7 breast cancer cells known by a person skilled in the art. These MVLN cells express, along with the functional oestrogen receptor (ER), a reporter construct, which under ER-activation expresses luciferase. Determination of the activity of the induced luciferase permits a direct conclusion on the oestrogen properties of substances. To investigate the anti-oestrogenic properties of the pharmacological compounds, they were investigated in the presence of oestrogen for their potential for inhibiting the luciferase signal induced by estradiol. The claimed pharmacological test substances were investigated in MVLN cells for their anti-oestrogenic potential, as described (see Table 2).

SMILES | IC50 [nM]
O=S(=O)(CCCN(CCF)CCCCCCC1=C(c2ccc(F)cc2)CCCc2c1ccc(O)c2F)CCCC(F)(F)C(F)(F)F [Example 85, 4-Fluoro-9-{6-[(2-fluoroethyl){3-[(4,4,5,5,5-pentafluoropentyl)sulphonyl]propyl}amino]hexyl}-8-(4-fluorophenyl)-6,7-dihydro-5H-benzo[7]annulen-3-ol] | 51
CN(CCCCCCC1=C(c2ccc(F)cc2)CCCc2c1ccc(O)c2F)CCCS(=O)(=O)CCCC(F)(F)C(F)(F)F [Example 33, 4-Fluoro-8-(4-fluorophenyl)-9-[6-(methyl{3-[(4,4,5,5,5-pentafluoropentyl)sulphonyl]propyl}amino)hexyl]-6,7-dihydro-5H-benzo[7]annulen-3-ol] | 11
O=S(=O)(CCCN(CCCCCCC1=C(c2ccc(F)cc2)CCCc2c1ccc(O)c2F)CC(F)F)CCCC(F)(F)C(F)(F)F [Example 64, 9-{6-[(2,2-Difluoroethyl){3-[(4,4,5,5,5-pentafluoropentyl)sulphonyl]propyl}amino]hexyl}-4-fluoro-8-(4-fluorophenyl)-6,7-dihydro-5H-benzo[7]annulen-3-ol] | 86
CN(CCCCCCC1=C(c2ccc(F)cc2)CCCc2cc(O)c(F)cc21)CCCS(=O)(=O)CCCC(F)(F)C(F)(F)F [Example 99, 2-Fluoro-8-(4-fluorophenyl)-9-[6-(methyl{3-[(4,4,5,5,5-pentafluoropentyl)sulphonyl]propyl}amino)hexyl]-6,7-dihydro-5H-benzo[7]annulen-3-ol] | 15
CN(CCCCCCC1=C(c2cc(F)cc(F)c2)CCCc2cc(O)ccc21)CCCS(=O)(=O)CCC(F)(F)F [Example 6, 8-(3,5-Difluorophenyl)-9-[6-(methyl{3-[(3,3,3-trifluoropropyl)sulphonyl]propyl}amino)hexyl]-6,7-dihydro-5H-benzo[7]annulen-3-ol] | 181
CN(CCCCCCC1=C(c2ccc(F)cc2)CCCc2c1ccc(O)c2F)CCCC[S+]([O-])CCCC(F)(F)C(F)(F)F (stereo not drawn) [Example 35, 4-Fluoro-8-(4-fluorophenyl)-9-[6-(methyl{4-[(4,4,5,5,5-pentafluoropentyl)sulphinyl]butyl}amino)hexyl]-6,7-dihydro-5H-benzo[7]annulen-3-ol] | 10
CN(CCCCCCC1=C(c2ccc(F)cc2)CCCc2cc(O)ccc21)CCCS(=O)(=O)CCCCCC(F)(F)F [Example 148, 8-(4-Fluorophenyl)-9-[6-(methyl{3-[(6,6,6-trifluorohexyl)sulphonyl]propyl}amino)hexyl]-6,7-dihydro-5H-benzo[7]annulen-3-ol] | 17
O=S(=O)(CCCN(CCO)CCCCCCC1=C(c2ccc(F)cc2)CCCc2cc(O)c(F)cc21)CCCC(F)(F)C(F)(F)F [Example 100, 2-Fluoro-8-(4-fluorophenyl)-9-{6-[(2-hydroxyethyl){3-[(4,4,5,5,5-pentafluoropentyl)sulphonyl]propyl}amino]hexyl}-6,7-dihydro-5H-benzo[7]annulen-3-ol] | 9
CN(CCCCCCC1=C(c2ccc(F)cc2)CCCc2cc(O)c(F)cc21)CCCCS(=O)(=O)CCCC(F)(F)C(F)(F)F [Example 105, 2-Fluoro-8-(4-fluorophenyl)-9-[6-(methyl{4-[(4,4,5,5,5-pentafluoropentyl)sulphonyl]butyl}amino)hexyl]-6,7-dihydro-5H-benzo[7]annulen-3-ol] | 12
O=C(O)CCN(CCCCCCC1=C(c2ccc(F)cc2)CCCc2cc(O)ccc21)CCCCS(=O)(=O)CCCC(F)(F)F [Example 95, N-{6-[8-(4-Fluorophenyl)-3-hydroxy-6,7-dihydro-5H-benzo[7]annulen-9-yl]hexyl}-N-{4-[(4,4,4-trifluorobutyl)sulphonyl]butyl}-beta-alanine] | 19
CS(=O)(=O)N(CCCCCCC1=C(c2ccc(F)cc2)CCCc2cc(O)ccc21)CCCCS(=O)(=O)CCCC(F)(F)F [Example 91, N-{6-[8-(4-Fluorophenyl)-3-hydroxy-6,7-dihydro-5H-benzo[7]annulen-9-yl]hexyl}-N-{4-[(4,4,4-trifluorobutyl)sulphonyl]butyl}methanesulphonamide] | 67
O=S(=O)(CCCNCCCCCCC1=C(c2ccc(F)cc2)CCCc2cc(O)ccc21)CCCC(F)(F)C(F)(F)F [Example 113, 8-(4-Fluorophenyl)-9-[6-({3-[(4,4,5,5,5-pentafluoropentyl)sulphonyl]propyl}amino)hexyl]-6,7-dihydro-5H-benzo[7]annulen-3-ol] | 18
CN(CCCCCCC1=C(c2ccc(F)cc2)CCCc2cc(O)ccc21)CCCS(=O)(=O)CCC(F)(F)F [Example 53, 8-(4-Fluorophenyl)-9-[6-(methyl{3-[(3,3,3-trifluoropropyl)sulphonyl]propyl}amino)hexyl]-6,7-dihydro-5H-benzo[7]annulen-3-ol] | 85
O=S(=O)(CCCN(CCO)CCCCCCC1=C(c2ccc(F)cc2)CCCc2c1ccc(O)c2F)CCCC(F)(F)C(F)(F)F [Example 59, 4-Fluoro-8-(4-fluorophenyl)-9-{6-[(2-hydroxyethyl){3-[(4,4,5,5,5-pentafluoropentyl)sulphonyl]propyl}amino]hexyl}-6,7-dihydro-5H-benzo[7]annulen-3-ol] | 16
CC(=O)N(CCCCCCC1=C(c2ccc(F)cc2)CCCc2cc(O)ccc21)CCCCS(=O)(=O)CCCC(F)(F)F [Example 89, N-{6-[8-(4-Fluorophenyl)-3-hydroxy-6,7-dihydro-5H-benzo[7]annulen-9-yl]hexyl}-N-{4-[(4,4,4-trifluorobutyl)sulphonyl]butyl}acetamide] | 54
CN(CCCCCCC1=C(c2cc(F)cc(F)c2)CCCc2cc(O)ccc21)CCCCS(=O)(=O)CCC(F)(F)C(F)(F)F [Example 69, 8-(3,5-Difluorophenyl)-9-[6-(methyl{4-[(3,3,4,4,4-pentafluorobutyl)sulphonyl]butyl}amino)hexyl]-6,7-dihydro-5H-benzo[7]annulen-3-ol] | 19
CC(C)(O)CN(CCCCCCC1=C(c2ccc(F)c(F)c2)CCCc2cc(O)ccc21)CCCS(=O)(=O)CCCC(F)(F)C(F)(F)F [Example 29, 8-(3,4-Difluorophenyl)-9-{6-[(2-hydroxy-2-methylpropyl){3-[(4,4,5,5,5-pentafluoropentyl)sulphonyl]propyl}amino]hexyl}-6,7-dihydro-5H-benzo[7]annulen-3-ol] | 10
CN(CCCCCCC1=C(c2ccc(F)c(F)c2)CCCc2cc(O)ccc21)CCCS(=O)(=O)CCC(F)(F)F [Example 22, 8-(3,4-Difluorophenyl)-9-[6-(methyl{3-[(3,3,3-trifluoropropyl)sulphonyl]propyl}amino)hexyl]-6,7-dihydro-5H-benzo[7]annulen-3-ol] | 222
CN(CCCCCCC1=C(c2ccc(F)cc2)CCCc2cc(O)c(F)cc21)CCCCS(=O)(=O)CCCC(F)(F)F [Example 101, 2-Fluoro-8-(4-fluorophenyl)-9-[6-(methyl{4-[(4,4,4-trifluorobutyl)sulphonyl]butyl}amino)hexyl]-6,7-dihydro-5H-benzo[7]annulen-3-ol] | 6
CN(CCCCCCC1=C(c2ccc(F)cc2F)CCCc2cc(O)ccc21)CCCS(=O)(=O)CCCCC(F)(F)F [Example 129, 8-(2,4-Difluorophenyl)-9-[6-(methyl{3-[(5,5,5-trifluoropentyl)sulphonyl]propyl}amino)hexyl]-6,7-dihydro-5H-benzo[7]annulen-3-ol] | 5
N#CCN(CCCCCCC1=C(c2ccc(F)cc2)CCCc2cc(O)ccc21)CCCS(=O)(=O)CCCCC(F)(F)F [Example 141, ({6-[8-(4-Fluorophenyl)-3-hydroxy-6,7-dihydro-5H-benzo[7]annulen-9-yl]hexyl}{3-[(5,5,5-trifluoropentyl)sulphonyl]propyl}amino)acetonitrile] | 21
COC(=O)CN(CCCCCCC1=C(c2ccc(F)cc2)CCCc2cc(O)ccc21)CCCCS(=O)(=O)CCCC(F)(F)F [Example 82, Methyl-N-{6-[8-(4-fluorophenyl)-3-hydroxy-6,7-dihydro-5H-benzo[7]annulen-9-yl]hexyl}-N-{4-[(4,4,4-trifluorobutyl)sulphonyl]butyl}glycinate] | 13
CCN(CCCCCCC1=C(c2cc(F)cc(F)c2)CCCc2cc(O)ccc21)CCCS(=O)(=O)CCC(F)(F)F [Example 14, 8-(3,5-Difluorophenyl)-9-[6-(ethyl{3-[(3,3,3-trifluoropropyl)sulphonyl]propyl}amino)hexyl]-6,7-dihydro-5H-benzo[7]annulen-3-ol] | 168
COCCN(CCCCCCC1=C(c2ccc(F)cc2)CCCc2c1ccc(O)c2F)CCCS(=O)(=O)CCCC(F)(F)C(F)(F)F [Example 40, 4-Fluoro-8-(4-fluorophenyl)-9-{6-[(2-methoxyethyl){3-[(4,4,5,5,5-pentafluoropentyl)sulphonyl]propyl}amino]hexyl}-6,7-dihydro-5H-benzo[7]annulen-3-ol] | 170
